# Reference: PubChem BioAssay (NCI)
#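 Results reflect a 48-hour exposure of cells in 96-well plates to compound at five concentrations. GI50 is the concentration that inhibits growth by half. At the TGI there is no net growth.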
# Assays:
# Assay in all cases: DTP human tumour cell line panel, 48 h
# A498 renal = test system: A498 renal
# HL-60(TB) leukemia = test system: HL-60(TB) leukemia
# KM12 colon = test system: KM12 colon
# M14 melanoma = test system: M14 melanoma
# MALME-3M melanoma = test system: MALME-3M melanoma
# OVCAR-8 ovarian = test system: OVCAR-8 ovarian
# SK-MEL-28 melanoma = test system: SK-MEL-28 melanoma
# SR leukemia = test system: SR leukemia
# T-47D breast = test system: T-47D breast
# UACC-62 melanoma = test system: UACC-62 melanoma
SMILES,GI50 (A498 renal) [µM],TGI (A498 renal) [µM],GI50 (HL-60(TB) leukemia) [µM],TGI (HL-60(TB) leukemia) [µM],GI50 (KM12 colon) [µM],TGI (KM12 colon) [µM],GI50 (M14 melanoma) [µM],TGI (M14 melanoma) [µM],GI50 (MALME-3M melanoma) [µM],TGI (MALME-3M melanoma) [µM],GI50 (OVCAR-8 ovarian) [µM],TGI (OVCAR-8 ovarian) [µM],GI50 (SK-MEL-28 melanoma) [µM],TGI (SK-MEL-28 melanoma) [µM],GI50 (SR leukemia) [µM],TGI (SR leukemia) [µM],GI50 (T-47D breast) [µM],TGI (T-47D breast) [µM],GI50 (UACC-62 melanoma) [µM],TGI (UACC-62 melanoma) [µM]
O=P(Oc1ccccc1)(Oc1ccccc1)C(O)c1ccccc1 (stereo not given),34.8,> 100,60.7,> 100,51,> 100,> 100,> 100,4.65,> 100,> 100,> 100,85.7,> 100,62.3,> 100,25.2,> 100,44.8,> 100
O=C(Nc1ncc([N+](=O)[O-])s1)c1cccc([N+](=O)[O-])c1,2.1,24.5,2.35,8.27,4.61,65.6,3.85,24.1,2.79,8.5,3.2,20.3,4.64,> 55.5,2.36,9.01,2.02,12.9,2.38,> 32.7
OCc1ccc(N(Cc2ccc(F)cc2)C2CCC2)cc1Cl,0.0332,0.156,5.7,25.5,14.5,28.7,15.8,32,16.2,31.3,13.4,29.1,13.5,26.4,15.3,35,0.141,0.815,0.124,0.846
C=C1C(=O)OC2C1C(OC(=O)/C(C)=C/C)CC(O)(CCl)C1C(OC(C)=O)C=C(C)C21O (stereo not given),,> 53.6,,9.39,,39.5,,25.7,,14.9,,26.5,,27.9,,26.1,,42.6,,29.3
COc1ccc(-n2c(-c3ccc(NC(=O)CCCl)cc3)nnc2-c2cc(OC)c(OC)c(OC)c2)cc1,3.82,12.8,1.9,6.02,2.35,7.6,4.27,> 14.3,4,> 14.3,7.87,> 14.3,3.56,14,3.12,12.7,3.01,14,2.54,6.92
Nc1nc(SCC(=O)O)[nH]c(=O)c1N,,> 100,,> 100,,> 100,,> 100,,> 100,,> 100,,> 100,,77.7,,> 100,,> 100
COC(=O)/C=C1\SC(=Nc2ccc(C(F)(F)F)cc2)N(CCc2c[nH]c3ccccc23)C1=O,1.5,2.98,1.23,3.98,1.74,3.62,1.46,2.9,1.79,3.3,1.74,4.6,1.87,3.55,0.613,9.31,1.19,3.17,1.62,3.47
